Measured values published in article PMC9542723, “Correlation between the drug concentration of polymyxin B and polymyxin B‐associated acute kidney injury in critically ill patients: A prospective study” (Pharmacology Research & Perspectives, 2022).
Positions of bridges follow the written chain, without caps; N, C: chain ends. Non-standard residues stand in square brackets, D forms with d. Residues, ends and D or L forms follow the SMILES beside them. *: point of attachment. X1 = CC[C@H](C)CCCCC(=O)*; Dab = NCC[C@H](N)C(=O)O

Experiments:
[1] = Steady-state serum concentrations of PB (PB1 + PB2) by UHPLC-MS/MS in critically ill patients; type: in vivo, human; conditions: median (IQR); for Estimated AUC0–24: double the AUC0-12 by linear trapezoidal approximation from three samples
Procedure: (§1) Inclusion criteria included age ≥ 18 years and intravenous administration of PB for more than 3 days. Exclusion criteria included PB administration of a daily dose of 1.5–2.5 mg/kg <3 days, underlying chronic renal insufficiency or existing AKI, or renal replacement therapy already performed. The loading dose and maintenance dose of PB for each patient depended on the doctors' decisions at a daily dose of 1.5–2.5 mg/kg in evenly two doses. PB was administered as an intermittent infusion over approximately 1 h. Patients were divided into an AKI group and a non‐AKI group according to whether they developed new AKI after PB application according to Kidney Disease Improving Global Outcomes (KDIGO) diagnostic criteria.[20] An increase in serum creatinine (Scr) to 50% of the base value within 7 days or an increase in Scr of more than 26.5 μmol/L within 2 days or oliguria is diagnosed as AKI according to KDIGO's diagnostic criteria.
The estimated area under the plasma concentration–time curve from 0 to 24 h (AUC0–24) was the main PK variable for PB. From each patient, three blood samples were taken after at least […] doses of PB: blood sample A (C max) was collected within 30 min after the end of intravenous infusion of PB for the peak concentration, blood sample B (C 1/2) was a mid‐dose blood sample taken 50% of the way through a dosing interval, and blood sample C (C min) was a pre‐dose concentration taken at the end of a dosing interval (within 30 min of the next dose, see Figure 1). The serum was separated and stored at −70°C until assay.
The PB1 and PB2 serum concentrations were measured using a validated ultrahigh performance liquid chromatography–tandem mass spectrometry assay method.[21] The C max, C 1/2, and C min of steady‐state (after at least 5 doses) PB1 and PB2 components were determined according to the above method: Cmax=Cmax−PB1+Cmax−PB2, C1/2=C1/2−PB1+C1/2−PB2, Cmin=Cmin−PB1+Cmin−PB2,
The estimated area under the concentration–time curve from 0 to 12 h (AUC0–12) was calculated using the linear trapezoidal approximation[22] and the estimated AUC0–24 from 0 to 24 h (AUC0–24) was calculated as double the AUC0–12, [23] assuming a steady state (after at least 4–5 doses) when PB was administered every 12 h.

critically ill patients [2] = test: Occurrence of PB-associated acute kidney injury (KDIGO criteria) after intravenous PB; type: in vivo, human; conditions: critically ill patients without basic renal insufficiency, 26/52, PB i.v. more than 3 days
Procedure: as §1

critically ill patients [3] = test: ROC curve analysis of PB PK parameters for predicting PB-AKI; set-up: species or system human; conditions: best cut point by maximised index
Source text: Data are reported as categorical variables or numerical variables. Continuous normally distributed numerical variables are expressed as the means ± standard deviations, and continuous non‐normally distributed variables are expressed as the median (interquartile range). ANOVA test was used to compare the continuous normally distributed variables, Kruskal–Wallis rank sum test was used to compare the continuous non‐normally distributed variables, and Chi‐square test was used to compare the rates. The sensitivity and specificity of C 1/2, C min, and estimated AUC0–24 for the development of AKI were determined using ROC curve analysis. AKI occurrence as the outcome, to maximize the Jorden index to find the best entry point. Statistical significance was defined as p < .05. SPSS version 22.0 (SPSS Inc.) was used for all statistical calculations.

critically ill patients [4] = conditions: previous clinical studies; cited from earlier work
Procedure: Estimated AUC0–24 is a predictor for PB‐AKI, and an estimated AUC0–24 ≥ 97.72 mg·h/L was identified as a significant breakpoint for PB‐AKI.

[5] = system: human renal tubular cells; conditions: cited from earlier work
Source text: In recent years, PB‐AKI has been increasingly reported, which is a problem that should not be ignored.[13], [17], [28] Studies have shown that the main features of PB‐AKI include acute renal tubular injury and reduced Ccr.[25] In a mouse study, PB distribution in renal tissue after intravenous administration was detected using PB‐specific monoclonal antibody immunostaining and was mainly concentrated in the renal cortex, especially in the proximal tubu ...

Row | Molecule | Estimated AUC0–24 ([1]; AKI group (n = 26)) | level at 6 h ([1]; human, iv, AKI group (n = 26), 50% of the way through a 12 h dosing interval, serum, sum PB1+PB2, UHPLC-MS/MS, read-out: C 1/2, middle serum concentration through a dosing interval) [ng/mL] | Cmax ([1]; human, iv, AKI group (n = 26), within 30 min after end of 1 h i.v. infusion, serum, sum PB1+PB2, UHPLC-MS/MS, read-out: C max, peak serum concentration of PB) [ng/mL] | Estimated AUC0–24 ([1]; non-AKI group (n = 26)) | Estimated AUC0–24 ([1]; total patients (N = 52)) | C max, peak serum concentration of PB ([1]; total patients (N = 52), within 30 min after end of 1 h i.v. infusion, daily dose 1.5-2.5 mg/kg in two doses, serum, sum PB1+PB2, UHPLC-MS/MS) | Incidence of AKI caused by intravenous PB (critically ill patients [2]) [%] | Cutoff value for estimated AUC0–24 predicting PB-AKI (critically ill patients [3]) [ng·h/mL] | Cutoff value for C 1/2 predicting PB-AKI (critically ill patients [3]; p = .003) [mg/L] | Estimated AUC0–24 that predicts nephrotoxicity of PB treatment (critically ill patients [4]) [ng·h/mL] | Concentration of polymyxin in renal tubular cells relative to extracellular [5] [times]
1 | CC[C@H](C)CCCCC(=O)N[C@@H](CCN)C(=O)N[C@H](C(=O)N[C@@H](CCN)C(=O)N[C@H]1CCNC(=O)[C@H]([C@@H](C)O)NC(=O)[C@H](CCN)NC(=O)[C@H](CCN)NC(=O)[C@H](CC(C)C)NC(=O)[C@@H](Cc2ccccc2)NC(=O)[C@H](CCN)NC1=O)[C@@H](C)O [PB, polymyxin B] (X1-[Dab]T[Dab][Dab][Dab][dF]L[Dab][Dab]T; lactam 4-C) | 102.37 (86.18–120.61) mg·h/L | 3940 | 6800 | 85.5 (69.16–97.55) mg·h/L | 92.07 (77.11–118.02) mg·h/L | 6.69 (5.56–8.36) mg/L | 50 | 97720 | 3.375 | > 100000 | –
2 | polymyxin | – | – | – | – | – | – | – | – | – | – | 4760
